In US9938249B2, “Anti-amyloid compounds containing benzofurazan” (Treventis Corporation, priority 2014, dated 2018):

Legend:
Aβ40 = Aβ40 (Homo sapiens, UniProt P05067); test: ThT Aβ aggregation assay (kinetic Thioflavin T fluorescence); format: biochemical; conditions: 20 μM Aβ, DMSO control at 80 hr = 0% inhibition, number in parenthesis = compound ID 1027 in that experiment; for inhibition at 10 µM: compound 10 μM, read-out: % inhib Thioflavin T Aβ 40 10 μM; for inhibition at 5 µM: 80 h, compound 5 μm (so in the source), read-out: % inhib Thioflavin T Aβ 40 (5 μm); for % inhib Thioflavin T Aβ 40 (3 μm): compound 3 μm (so in the source)
Procedure: Preparation of Aβ40 Stock Solutions
Aβ40 (1.0 mg) was pre-treated in a 1.5 mL microfuge tube with HFIP (1 mL) and sonicated for 20 min to disassemble any pre-formed Aβ aggregates. The HFIP was removed with a stream of argon and the Aβ dissolved in Tris base (5.8 mL, 20 mM, pH ˜10). The pH was adjusted to 7.4 with concentrated HCl (˜10 μL) and the solution filtered using a syringe filter (0.2 μm) before being used.
The kinetic ThT assay for Aβ aggregation is similar to that of Chalifour et al (Chalifour et al, 2003, J. Biol. Chem. 278:34874-81). Briefly, pre-treated Aβ40 or Aβ42 (40 μM in 20 mM Tris, pH 7.4) was diluted with an equal volume of 8 μM Thioflavin T (ThT) in Tris (20 mM, pH 7.4, 300 mM NaCl). Aliquots of Aβ/ThT (200 μL) were added to wells of a black polystyrene 96-well plate, followed by 2 μL of a compound in DMSO (variable concentration), or DMSO alone (controls). Incubations were performed in triplicate and were taken to contain 20 μM Aβ, various concentration of compound in 20 mM Tris, pH 7.4, 150 mM NaCl, 1% DMSO. Plates were covered with clear polystyrene lids and incubated at 37° C. in a Tecan Genios microplate reader.
Analysis of ThT and ThS Aggregation Assays
Fluorescence readings (λex=450 nm, λem=480 nm) were taken every 15 min., after first shaking at high intensity for 15 s and allowing to settle for 10 s before each reading. Active compounds attenuated the increase in fluorescence over time that occurred in controls. In FIGS. 1-7, the time this procedure was performed extended to 80 hours (rightmost part of X-axis), at which point fluorescence increase generally reached an asymptote. Applying a definition of DMSO control at 80 hr as 100% aggregation (0% inhibition) and DMSO control at 0 hr as 0% aggregation (100% inhibition), a % inhibition score where higher is better can be calculated for a given concentration of compound. By repeating this procedure over several concentrations, a […] (IC50) can be measured, as is given in the table below for some compounds.

[1] = biological target: Terminally biotinylated beta-amyloid (Aβ42) (Homo sapiens, UniProt P05067); test: Aβ42 biotinylated (biotin-AB) oligomerization assay, NeutrAvidin capture ELISA; format: biochemical; conditions: approximate value; 1 hr oligomerization at room temperature; read-out: IC50 Aβ 42-bio
Procedure: Aβ42 Biotinylated Assay Terminally biotinylated beta-amyloid (biotin-AB) was dissolved in HFIP at the concentration of 1 mg/ml and aliquoted to 50 μl/tube in 0.65 ml colored microfuge tubes (Fisher 02-681-248). The aliquots were diluted immediately by adding 450 μl of HFIP to 0.1 mg/ml. Approximately 46 ul (containing approximately 4.6 ug of biotin-AB) were taken from a tube, 100 ul of HFIP added, vortexed, and dried to a thin film under an N2 stream. 100 μl of trifluoroacetic acid (TFA) was added and vortexed. After 10 minute incubation at room temperature in a hood, resulting in disaggregation of seeds, the sample was vortexed again and dried again to a thin film under an N2 stream. 100 μl of HFIP was added, mixed, and the biotin-AB sample was dried for a third time under an N2 stream to remove residual TFA. The treated biotin-AB was dissolved in DMSO to a final peptide concentration of […] (SOX). An ELISA “capture” plate (Costar 9018) was coated with 50 μl of 1 μg/ml NeutrAvidin™ (NA) in 10 mM sodium phosphate buffer, pH 7.5. (NeutrAvidin can be prepared as 1 mg/ml (1000×) in milliQ water/10% glycerol and stored at −80° C. before use.) The plate was sealed plate with adhesive film and stored at 4° C. overnight, then blocked for 2 hours (unsealed) at room temperature with 200 μl/well OFB+0.1% v/v Tween 20. The “capture” plate was allowed to come to room temperature. Several dilutions of test compound were prepared with 100% DMSO, according to the desired concentration to be tested. 2.5 μl of diluted test compound was pipetted into the bottom of each well of a 96-well “dilution” polypropylene plate (Costar 3365), to which was added 250 ul of Oligomer Formation Buffer (OFB: 20 mM sodium phosphate, pH 7.5-150 mM NaCl). To begin oligomerization, 2 μl/well of the biotin-AB was added to the bottom of each well of a 96-well “reaction” polypropylene plate (Costar 3365) and 100 ul of each well of the “dilution” plate was transferred to the “reaction” plate (final concentration of DMSO being up to 1%). The reaction plate was sealed and incubated for 1 hr at room temperature without shaking. The reaction was then stopped by the addition of 50 ul of 0.3% Tween 20 in water. The “capture” plate blocking solution was removed, and 50 ul of each well of the “reaction” plate was transferred to each well of the “capture” plate. The “capture” plate was sealed and incubated for 2 hours at room temperature with shaking at 150 rpm. The “capture” plate was then washed on a plate washer (3×) with 200 ul/well TBST (20 mM Tris-HCL, pH 7.5/150 mM NaCl/0.1% Tween 20). 50 ul of Streptavidin-horseradish […] (1:20,000 dilution) in OFB+0.1% Tween 20 was added to each well, the “capture” plate was sealed and incubated for 1 hr with shaking at 150 rpm. As before, the plate was washed, then 100 ul of TMB/H2O2 substrate solution was added to each well. After 5-10 minutes, 100 ul of 1% v/v sulfuric acid was added and the absorbance of each well was read at 450 nm using a standard plate reader. Data is summarized in the table below; numbers given in parenthesis for the Aβ 40 Thioflavin T assays are the values in that particular experiment for compound ID 1027, given as the first entry in this table for structural comparison. “IC50 Aβ42-bio” column refers to the approximate value of the Aβ42 biotinylated assay IC50 in micromoles/L.

Chain of Aβ40 (P05067 672-711, species assumed): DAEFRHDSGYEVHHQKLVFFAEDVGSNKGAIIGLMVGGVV
Chain of Terminally biotinylated beta-amyloid (Aβ42) (P05067 672-713, species assumed): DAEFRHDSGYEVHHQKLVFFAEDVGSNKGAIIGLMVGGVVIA

Row | Structure (SMILES) | inhibition at 10 µM (Aβ40) [%] | IC50 [1] [µM] | inhibition at 5 µM (Aβ40) [%] | % inhib Thioflavin T Aβ 40 (3 μm) (Aβ40) [%]
1 | CS(=O)(=O)c1ccc(-c2cc(N3CC(CN4CCCC4)C3)c3nonc3c2)cc1 [compound 1501] | 48 | > 20 |  | 
2 | CN(C)CCCN(C)c1cc(-c2cccc(C(O)C(F)(F)F)c2)cc2nonc12 (stereo not shown) [compound 1465] |  | > 20 | 44 | 
3 | c1cc(-c2cc(N3CC(CN4CCCC4)C3)c3nonc3c2)co1 [compound 1510] | 65 | > 20 |  | 
4 | CSc1ccccc1-c1cc(N2CC(CN3CCCC3)C2)c2nonc2c1 [compound 1532] | 68 | 27.1 |  | 
5 | OC(c1ccc(-c2cc(N3CCC(N4CCCC4)CC3)c3nonc3c2)s1)C(F)(F)F (stereo not shown) [compound 1464] | 35 | > 20 |  | 
6 | CN1CCC=C(c2cc(N3CC(CN4CCCC4)C3)c3nonc3c2)C1 [compound 1524] | 61 | 14.9 |  | 
7 | c1ccc(-c2cc(N3CC(CN4CCCC4)C3)c3nonc3c2)cc1 [compound 1486] | 32 | 19.7 |  | 
8 | COc1cccc(OC)c1-c1cc(N2CC(CN3CCCC3)C2)c2nonc2c1 [compound 1511] | 27 | 21.3 |  | 
9 | CN(C)C(=O)c1ccc(-c2cc(N3CC(CN4CCCC4)C3)c3nonc3c2)cc1 [compound 1516] | 47 | > 20 |  | 
10 | CN1CC=C(c2cc(N3CC(CN4CCCC4)C3)c3nonc3c2)CC1 [compound 1517] | 33 | 6.8 |  | 
11 | O=C(C1CN(c2cc(Br)cc3nonc23)C1)N1CCCC1 [compound 1497] | 65 | > 20 |  | 
12 | c1cc(-c2cc(N3CC(CN4CCCC4)C3)c3nonc3c2)n[nH]1 [compound 1525] | 63 | 13.2 |  | 
13 | OC(c1cccc(-c2cc(N3CCC3)c3nonc3c2)c1)C(F)(F)F (stereo not shown) [compound 1432] |  |  |  | 23
14 | OC(c1cc(-c2cc(N3CCC(N4CCCC4)CC3)c3nonc3c2)cs1)C(F)(F)F (stereo not shown) [compound 1463] | 61 |  | 37 | 
15 | O=C(c1ccccc1)N1CCN(c2ccc([N+](=O)[O-])c(Nc3ccccc3)c2)CC1 [compound 1027, reference compound] |  |  |  | 26
16 | OC(c1ccnc(-c2cc(N3CC(CN4CCOCC4)C3)c3nonc3c2)c1)C(F)(F)F (stereo not shown) [compound 1620, 2,2,2-trifluoro-1-(2-(7-(3-(morpholinomethyl)azetidin-1-yl)benzo[c][1,2,5]oxadiazol-5-yl)pyridin-4-yl)ethan-1-ol] |  | 11.1 |  | 
17 | OC(c1cncc(-c2cc(N3CC(CN4CCOCC4)C3)c3nonc3c2)c1)C(F)(F)F (stereo not shown) [compound 1621, 2,2,2-trifluoro-1-(5-(7-(3-(morpholinomethyl)azetidin-1-yl)benzo[c][1,2,5]oxadiazol-5-yl)pyridin-3-yl)ethan-1-ol] |  | 16.7 |  | 
18 | OC(/C=C/c1cc(N2CC(CN3CCOCC3)C2)c2nonc2c1)C(F)(F)F (stereo not shown) [compound 1665, (E)-1,1,1-trifluoro-4-(7-(3-(morpholinomethyl)azetidin-1-yl)benzo[c][1,2,5]oxadiazol-5-yl)but-3-en-2-ol] |  | 21.8 |  | 
19 | OCC1CN(c2cc(-c3cccc(C(O)C(F)(F)F)c3)cc3nonc23)C1 (stereo not shown) [compound 1428] |  |  |  | 52

Further lines, results first:

Row | inhibition at 10 µM (Aβ40) [%] | IC50 [1] [µM] | inhibition at 5 µM (Aβ40) [%] | % inhib Thioflavin T Aβ 40 (3 μm) (Aβ40) [%] | Structure (SMILES)
20 | 55 | 7.8 | 53 |  | COC(c1cc(N2CC(CN3CCCC3)C2)c2nonc2c1)C(F)(F)F (stereo not shown) [compound 1539]
21 | 35 | 5.6 |  |  | CS(=O)(=O)N1C=C(c2cc(N3CC(CN4CCCC4)C3)c3nonc3c2)CCC1 [compound 1533]
22 | 31 | 4 | 19 |  | O=C(NC1CC1)c1cc(N2CC(CN3CCCC3)C2)c2nonc2c1 [compound 1541]
23 | 65 | 2.4 | 44 |  | OC(c1ccc(-c2cc(N3CCC(N4CCCC4)CC3)c3nonc3c2)cc1)C(F)(F)F (stereo not shown) [compound 1468]
24 | 64 | 5.91 |  |  | FC(F)(F)Oc1ccccc1-c1cc(N2CC(CN3CCCC3)C2)c2nonc2c1 [compound 1495]
25 | 32 | 0.52 |  |  | c1ccc(Oc2ccc(-c3cc(N4CC(CN5CCCC5)C4)c4nonc4c3)cc2)cc1 [compound 1491]
26 | 41 | 5.52 |  |  | CC(=O)Nc1ccc(-c2cc(N3CC(CN4CCCC4)C3)c3nonc3c2)cc1 [compound 1482]
27 | 67 | 3.5 |  |  | CC(=O)N1C=C(c2cc(N3CC(CN4CCCC4)C3)c3nonc3c2)CCC1 [compound 1534]
28 | 61 | 4.2 | 43 |  | Cn1nccc1-c1cc(N2CC(CN3CCCC3)C2)c2nonc2c1 [compound 1536]
29 |  | 4.98 |  |  | OC(c1ccc(-c2cc(N3CC(CN4CCOCC4)C3)c3nonc3c2)cn1)C(F)(F)F (stereo not shown) [compound 1618, 2,2,2-trifluoro-1-(5-(7-(3-(morpholinomethyl)azetidin-1-yl)benzo[c][1,2,5]oxadiazol-5-yl)pyridin-2-yl)ethan-1-ol]
30 |  | 5.8 |  |  | COc1ccc(-c2cc(N3CC(CN4CCOCC4)C3)c3nonc3c2)cc1F [compound 1585, 6-(3-fluoro-4-methoxyphenyl)-4-(3-(morpholinomethyl)azetidin-1-yl) benzo[c][1,2,5]oxadiazole]
31 |  | 2.7 |  |  | OC(c1ccc(-c2cc(N3CC(CN4CCOCC4)C3)c3nonc3c2)s1)C(F)(F)F (stereo not shown) [compound 1562, 2,2,2-trifluoro-1-(5-(7-(3-(morpholinomethyl)azetidin-1-yl)benzo[c][1,2,5]oxadiazol-5-yl)thiophen-2-yl)ethan-1-ol]
32 |  | 7.5 |  |  | OC(c1cnc(-c2cc(N3CC(CN4CCCC4)C3)c3nonc3c2)s1)C(F)(F)F (stereo not shown) [compound 1597]
